Reference: patent US8637467B2, “Pharmaceutical being used for treating cancer and fibrosis disease and the composition and uses thereof” (Wuxi MTLH Biotechnology Co., Ltd., priority 2008, dated 2014)
Where no end group is shown, it is not given here.

Experiments:
[1] = tested on: human liver cancer cell BEL-7402; assay: Migration of liver cancer cells through base membrane; assay type: cell-based
Description: Peptide SEQ ID No:1 from example 1 can inhibit human liver cancer cell BEL-7402 migration from base membrane, at 0.01, 0.1, or 1 mg/ml (12 hour incubation).

[2] = tested on: human liver cancer cell BEL-7402; assay: Cancer cell attachment to base membrane; assay type: cell-based; settings: incubated with cancer cells for 12 hours, FIG. 6
SMMC-7721 = assay type: cell-based, Human; settings: 72 h
Description: (§1) 2. Cell Lines • Human liver cancer cell line (SMMC-7721, BEL-7402, BEL-7402) were purchased from National Medical Academy of Sciences Tissue Bank and Chinese Academy of Sciences, Shanghai Cell line Research Institute.
(§2) 3. Cell Culture • All cell lines were incubated at 37C, 5% CO2 incubator with saturated humidity. Culture media was RPMI1640 media with 10% heat inactivated FBS, penicillin 100 u/ml, streptomycin 100 u/ml. After 48 hours media was changed. Cells were released with 0.25% trypsin and propagate. Cells used in the experiment were in log phase. Cell viability was determined using trypan blue staining.
(§3) 4. Methods • Take cells at log phase and release with 0.125% trypsin+0.01% EDTA and dilute cells to 2-4×10^4 cells/ml. Cells were placed in 96 well plate (180 ul/well), and were incubated at 37 C CO2 incubator for 24 hours. Media was changed, then peptide SEQ ID No:1 was added to the well (20 ul/well), incubate for 72 hours. Add MTT into 96 well plate (20 ul/well), and incubate for 4 hours. Media was removed, add DMSO (150 ul/well). The plate was shaken for 10 minutes. 7 concentration points (0.1 to 10 uM) was examined. Absorbance at 570 nm was measured for each well to calculate the IC50. IC50=(O.D. at well with no peptide−O.D. at well with peptide)/O.D. at well with no peptide

BEL-7404 = assay type: cell-based, Human; settings: 72 h
Description: as §1, §2, §3

BEL-7402 = assay type: cell-based, Human; settings: 72 h
Description: as §1, §2, §3

liver cancer (H22) = assay: Xenograph liver cancer nude mice model (H22); assay type: in vivo; settings: H22, 1 mg/kg
Description: (§4) Experimental animals: Female BALB/cA nude mice, age 35-40 days, weight 18-22 g, provided by Shanghai Silaike Experimental Animal Co. Ltd., certificate number: SOCK (Shanghai) 2007-0005.
(§5) The tumor of xenograph nude mice grew to 100˜300 mm^3. Tumor mice were divided into different groups for drug testing. In the experiment below, there were 12 nude mice in negative control group, and 6 nude mice in the group with tested drug. Tumor diameter was measured three times each week, and mice weight was measured at the same time.
(§6) T/C (relative tumor inhibition rate) % was calculated as below: • (1) tumor volume, TV, calculated as below: TV=½×a×b^2 • A and b are length and width. • (2) relative tumor volume, RTV, calculated as below: RTV=TVt/TV0. • TV0 ? is tumor volume at the beginning of drug use (d0), TVt is tumor volume at later time point. • (3) relative tumor inhibition rate T/C (%), calculate as below:
(§7) [formula] TRTV: treatment group RTV; CRTV: negative control RTV

human lung cancer A549 = assay: Human lung cancer A549 xenograph nude mice; assay type: in vivo; settings: 6 times a week, 3 weeks
Description: as §4, §5, §6, §7
Peptide SEQ ID No:1 was given through tail vein (IV), at dosing of 0.5 mg/kg, 0.25 mg/kg, and 0.125 mg/kg, 6 times a week. Docetaxol was positive control, at dosing of 20 mg/kg, once a week. Negative control was given saline solution. The xenograph nude mice were treated for 3 weeks.

[3] = tested on: human stomach cancer SGC-7901; assay: Human stomach cancer SGC-7901 xenograph nude mice; assay type: in vivo; settings: 0.125 mg/kg IV, 6 times a week, 3 weeks
Description: as §4, §5, §6, §7
Peptide SEQ ID No:1 was given through tail vain (IV), at dosing of 1 mg/kg, 0.5 mg/kg, 0.25 mg/kg, 0.125 mg/kg, and 0.0625 mg/kg, 6 times a week. 5-FU was positive control, at dosing of 25 mg/kg, once a week. Negative control was given saline solution. The xenograph nude mice were treated for 3 weeks.

[4] = Mice weight in xenograph tumor mice models; assay type: in vivo, BALB/cA nude mice; settings: all the xenograph tumor mice models, different concentration
Description: as §5

## SKVTKKYHEVLQLRPKTGVRGLHKSLTDVALEHHEECDCVCRGSTGG-OH (cysteines drawn unpaired) [Peptide SEQ ID NO:1]
[1]; BEL-7402, 0.01, 0.1, or 1 mg/ml, 12 hour incubation
  migration from base membrane: can inhibit
[1]; incubated with cancer cells for 12 hours, FIG. 7
  cancer cell migration ability through base membrane: inhibits cancer cell migration ability through base membrane
[2]
  cancer cell attachment to base membrane: inhibited cancer cell attachment to base membrane
SMMC-7721
  IC50: 1250 nM
BEL-7404
  IC50: 2330 nM
BEL-7402
  IC50: 1780 nM
Liver cancer (H22)
  inhibition rate, tumor: 67.8%
Human lung cancer A549; 0.125 mg/kg IV
  T/C(%) relative tumor inhibition rate: 48.96%
Human lung cancer A549; 0.25 mg/kg IV
  T/C(%) relative tumor inhibition rate: 47.98%
[3]
  T/C(%) relative tumor inhibition rate: 47.66%
[4]
  weight of the mice: not affected
